The results in this text go back to ChEMBL document CHEMBL3046627, “Synthesis and in vitro study of antibacterial, antifungal activities of some novel bisquinolines” (2013).

In general, MIC refers to the lowest concentration that inhibits growth of the organism.

In brackets after ≈: the same amount, converted by molar mass. Activity calls are given as the source filed them. The rule behind the calls is not given here.

What all share (format): functional
Test [1] concerns Bacillus pumilus. Nature of the test: Antibacterial activity against Bacillus pumilus 11778 assessed as growth inhibition at MIC after 24 hr by agar dilution method.
For test [2], the system named is Vibrio cholerae. Put plainly: Antibacterial activity against Vibrio cholerae 759 assessed as growth inhibition at MIC after 24 hr by agar dilution method. A general note: In agar dilution the substance is mixed into plates at graded concentrations.
In test [3] the test system is Klebsiella pneumoniae. Put plainly: Antibacterial activity against Klebsiella pneumoniae J/I/4 assessed as growth inhibition at MIC after 24 hr by agar dilution method.
Test [4] has as its system Staphylococcus aureus. Nature of the test: Antibacterial activity against Staphylococcus aureus 29737 assessed as growth inhibition after 24 hr by agar dilution method.
For test [5], the system named is Shigella dysenteriae. Put plainly: Antibacterial activity against Shigella dysenteriae 15 assessed as growth inhibition after 24 hr by agar dilution method.
The subject of test [6] is Micrococcus luteus. Put plainly: Antibacterial activity against Micrococcus luteus ATCC 9341 assessed as growth inhibition after 24 hr by agar dilution method.
Test [7] deals with Bacillus pumilus. Nature of the test: Antibacterial activity against Bacillus pumilus 11778 assessed as growth inhibition after 24 hr by agar dilution method.
In test [8] the test system is Pseudomonas aeruginosa. Nature of the test: Antibacterial activity against Pseudomonas aeruginosa 71 assessed as growth inhibition after 24 hr by agar dilution method.
The test system of test [9] is Vibrio cholerae. Nature of the test: Antibacterial activity against Vibrio cholerae 759 assessed as growth inhibition after 24 hr by agar dilution method.
Test [10] has as its system Klebsiella pneumoniae. Put plainly: Antibacterial activity against Klebsiella pneumoniae J/I/4 assessed as growth inhibition after 24 hr by agar dilution method.
Test [11] has as its system Shigella dysenteriae. Put plainly: Antibacterial activity against Shigella dysenteriae 15 assessed as growth inhibition at MIC after 24 hr by agar dilution method.
Test [12] concerns Micrococcus luteus. Put plainly: Antibacterial activity against Micrococcus luteus ATCC 9341 assessed as growth inhibition at MIC after 24 hr by agar dilution method.
Test [13] has as its system Aspergillus niger. Put plainly: Antifungal activity against Aspergillus niger assessed as growth inhibition after 96 hr by agar dilution method.
The test system of test [14] is Candida albicans. Put plainly: Antifungal activity against Candida albicans assessed as growth inhibition after 96 hr by agar dilution method.
In test [15] the test system is Candida tropicalis. Nature of the test: Antifungal activity against Candida tropicalis assessed as growth inhibition after 96 hr by agar dilution method.
In test [16] the test system is Cryptococcus neoformans. Put plainly: Antifungal activity against Cryptococcus neoformans assessed as growth inhibition after 96 hr by agar dilution method.
For test [17], the system named is Escherichia coli. Nature of the test: Antibacterial activity against Escherichia coli 319 assessed as growth inhibition after 24 hr by agar dilution method.
The test system of test [18] is Pseudomonas aeruginosa. Put plainly: Antibacterial activity against Pseudomonas aeruginosa 71 assessed as growth inhibition at MIC after 24 hr by agar dilution method.
For test [19], the system named is Staphylococcus aureus. Put plainly: Antibacterial activity against Staphylococcus aureus 29737 assessed as growth inhibition at MIC after 24 hr by agar dilution method.
For test [20], the system named is Escherichia coli. Put plainly: Antibacterial activity against Escherichia coli 319 assessed as growth inhibition at MIC after 24 hr by agar dilution method.
In test [21] the test system is Candida albicans. Put plainly: Antifungal activity against Candida albicans assessed as growth inhibition at MIC after 96 hr by agar dilution method.
The test system of test [22] is Cryptococcus neoformans. Put plainly: Antifungal activity against Cryptococcus neoformans assessed as growth inhibition at MIC after 96 hr by agar dilution method.
Test [23] has as its system Aspergillus niger. Nature of the test: Antifungal activity against Aspergillus niger assessed as growth inhibition at MIC after 96 hr by agar dilution method.
Test [24] deals with Candida tropicalis. Put plainly: Antifungal activity against Candida tropicalis assessed as growth inhibition at MIC after 96 hr by agar dilution method.
[25] abbreviates: Staphylococcus aureus, 29737, 24 h.
Setting [26] is: Pseudomonas aeruginosa, 71, 24 h.

Consider GENTAMICIN, for which the inhibition zone (IZ) in the test on Bacillus pumilus [1] was found to be 7 mm; in the test with Vibrio cholerae [2], 11 mm; in the test with Klebsiella pneumoniae [3] it was 9 mm; in the test on Shigella dysenteriae [11], 12 mm; with Micrococcus luteus [12] it was 7 mm. The MIC in the test on Staphylococcus aureus [4] is 1 µg/mL; in the test with Shigella dysenteriae [5], 2 µg/mL; in the test with Micrococcus luteus [6], 24 µg/mL; in the test with Bacillus pumilus [7] it was 10 µg/mL; in the test with Pseudomonas aeruginosa [8], 4 µg/mL; with Vibrio cholerae [9], 2 µg/mL. Also, in the test on Klebsiella pneumoniae [10], the MIC is 0.25 µg/mL.

Regarding `Cc1ccc2cccc(OCc3ccc(COc4cccc5ccc(C)nc45)cc3)c2n1`, the MIC result in the test with Aspergillus niger [13], in the test on Candida albicans [14], with Candida tropicalis [15], with Cryptococcus neoformans [16], in the test with Staphylococcus aureus [4] and with Shigella dysenteriae [5] was “inactive” in each case. The MIC entry in the test with Micrococcus luteus [6], in the test with Escherichia coli [17], in the test with Bacillus pumilus [7], with Pseudomonas aeruginosa [8], in the test with Vibrio cholerae [9] and with Klebsiella pneumoniae [10] was “inactive” throughout.

For `Cc1ccc2cccc(OCc3nc4ccccc4nc3COc3cccc4ccc(C)nc34)c2n1`, the MIC entry with Aspergillus niger [13], in the test on Candida albicans [14], in the test with Candida tropicalis [15], in the test with Cryptococcus neoformans [16], in the test with Staphylococcus aureus [4] and with Shigella dysenteriae [5] was “inactive” each time. Also, the MIC result in the test on Micrococcus luteus [6], in the test on Escherichia coli [17], with Bacillus pumilus [7], in the test with Pseudomonas aeruginosa [8], with Vibrio cholerae [9] and in the test on Klebsiella pneumoniae [10] was “inactive” throughout.

Consider `CC1(C)S[C@@H]2[C@H](NC(=O)[C@H](N)c3ccc(O)cc3)C(=O)N2[C@H]1C(=O)O` [AMOXICILLIN], for which the “diameter of the inhibition zone (DIZ)” value with Bacillus pumilus [1] amounted to 10 mm; with Pseudomonas aeruginosa [18], 7.5 mm; in the test on Vibrio cholerae [2] it was 7 mm; in the test with Klebsiella pneumoniae [3], 8 mm; in the test on Staphylococcus aureus [19], 10.5 mm; with Shigella dysenteriae [11], 9.5 mm. Besides, the “diameter of the inhibition zone (DIZ)” value in the test with Micrococcus luteus [12] was determined as 11 mm; in the test on Escherichia coli [20], 8 mm. Moreover, the MIC came out at 0.5 µg/mL (≈ 1.37 µM) in the test with Staphylococcus aureus [4] (setting [25]); 100 µg/mL (≈ 274 µM) with Shigella dysenteriae [5] (Shigella dysenteriae, 15, 24 h); 1 µg/mL (≈ 2.74 µM) with Micrococcus luteus [6] (ATCC 9341, 24 h); 4 µg/mL (≈ 10.9 µM) in the test on Escherichia coli [17] (Escherichia coli, 319, 24 h); 0.5 µg/mL (≈ 1.37 µM) with Bacillus pumilus [7] (Bacillus pumilus, 11778, 24 h); 256 µg/mL (≈ 701 µM) in the test with Pseudomonas aeruginosa [8] (setting [26]). The minimum inhibitory concentration (MIC) in the test with Vibrio cholerae [9] (Vibrio cholerae, 759, 24 h) was determined as 256 µg/mL (≈ 701 µM); in the test on Klebsiella pneumoniae [10] (J/I/4, 24 h) it was 256 µg/mL (≈ 701 µM).

As to `c1ccc2cc(COc3cccc4cccnc34)c(COc3cccc4cccnc34)cc2c1`, the “diameter of the inhibition zone (DIZ)” value was determined as 9 mm with Bacillus pumilus [1]; 8.2 mm with Pseudomonas aeruginosa [18]; 7.1 mm in the test with Vibrio cholerae [2]; 6.4 mm with Klebsiella pneumoniae [3]; 6 mm with Staphylococcus aureus [19]; 6 mm in the test on Shigella dysenteriae [11]. The “diameter of the inhibition zone (DIZ)” value in the test with Micrococcus luteus [12] was 6 mm; in the test on Escherichia coli [20], 9.7 mm. Moreover, the MIC entry with Aspergillus niger [13], with Candida albicans [14], in the test with Candida tropicalis [15] and with Cryptococcus neoformans [16] was “inactive” throughout. Besides, the MIC in the test on Staphylococcus aureus [4] (setting [25]) was greater than 500 µg/mL; in the test on Shigella dysenteriae [5] (Shigella dysenteriae, 15, 24 h) it was greater than 500 µg/mL; in the test with Micrococcus luteus [6] (ATCC 9341, 24 h), greater than 500 µg/mL; in the test with Escherichia coli [17] (Escherichia coli, 319, 24 h), 32 µg/mL (≈ 72.3 µM); with Bacillus pumilus [7] (Bacillus pumilus, 11778, 24 h) it was 256 µg/mL (≈ 579 µM); in the test with Pseudomonas aeruginosa [8] (setting [26]) it was greater than 500 µg/mL. For the same molecule, the MIC in the test on Vibrio cholerae [9] (Vibrio cholerae, 759, 24 h) is greater than 500 µg/mL; with Klebsiella pneumoniae [10] (J/I/4, 24 h) it was greater than 500 µg/mL.

`c1cnc2c(OCc3ccc(COc4cccc5cccnc45)cc3)cccc2c1`: the MIC result in the test on Aspergillus niger [13], in the test with Candida albicans [14], in the test with Candida tropicalis [15], with Cryptococcus neoformans [16], in the test with Staphylococcus aureus [4] and in the test with Shigella dysenteriae [5] was “inactive” throughout. The MIC entry in the test with Micrococcus luteus [6], with Escherichia coli [17], in the test on Bacillus pumilus [7], with Pseudomonas aeruginosa [8], with Vibrio cholerae [9] and with Klebsiella pneumoniae [10] was “inactive” throughout. For the same molecule, the “diameter of the inhibition zone (DIZ)” value in the test on Candida albicans [21] and in the test on Cryptococcus neoformans [22] was “inactive” in each case.

Regarding `Cc1ccc2cccc(OCc3cc4ccccc4cc3COc3cccc4ccc(C)nc34)c2n1`, the “diameter of the inhibition zone (DIZ)” value in the test with Bacillus pumilus [1] is reported as 6 mm; in the test with Staphylococcus aureus [19], 6.1 mm; in the test on Shigella dysenteriae [11], 8 mm; in the test on Escherichia coli [20], 7 mm. Besides, the “diameter of the inhibition zone (DIZ)” value in the test on Pseudomonas aeruginosa [18], with Vibrio cholerae [2], with Klebsiella pneumoniae [3] and with Micrococcus luteus [12] was “inactive” each time. Besides, the MIC result in the test with Aspergillus niger [13], in the test with Candida albicans [14], in the test on Candida tropicalis [15] and in the test on Cryptococcus neoformans [16] was “inactive” throughout. The MIC in the test on Staphylococcus aureus [4] (setting [25]) was greater than 500 µg/mL; in the test with Shigella dysenteriae [5] (Shigella dysenteriae, 15, 24 h), greater than 500 µg/mL; in the test on Micrococcus luteus [6] (ATCC 9341, 24 h), greater than 1000 µg/mL; with Escherichia coli [17] (Escherichia coli, 319, 24 h) it was greater than 500 µg/mL; in the test on Bacillus pumilus [7] (Bacillus pumilus, 11778, 24 h), 64 µg/mL (≈ 136 µM); in the test with Pseudomonas aeruginosa [8] (setting [26]), greater than 500 µg/mL. The MIC in the test on Vibrio cholerae [9] (Vibrio cholerae, 759, 24 h) is greater than 500 µg/mL; in the test on Klebsiella pneumoniae [10] (J/I/4, 24 h), greater than 1000 µg/mL.

On to `c1cc(COc2cccc3cccnc23)cc(COc2cccc3cccnc23)c1`, for which the MIC entry with Aspergillus niger [13], in the test with Candida albicans [14], in the test on Candida tropicalis [15], with Cryptococcus neoformans [16], in the test on Staphylococcus aureus [4] and with Shigella dysenteriae [5] was “inactive” throughout. Further, the MIC result with Micrococcus luteus [6], with Escherichia coli [17], in the test with Bacillus pumilus [7], with Pseudomonas aeruginosa [8], in the test with Vibrio cholerae [9] and in the test with Klebsiella pneumoniae [10] was “inactive” throughout. Besides, the “diameter of the inhibition zone (DIZ)” value with Aspergillus niger [23], in the test with Candida albicans [21], in the test with Candida tropicalis [24] and in the test on Cryptococcus neoformans [22] was “inactive” in each case.

Turning to `c1cnc2c(OCc3nc4ccccc4nc3COc3cccc4cccnc34)cccc2c1`, the MIC entry with Aspergillus niger [13], in the test with Candida albicans [14], with Candida tropicalis [15], in the test with Cryptococcus neoformans [16], with Staphylococcus aureus [4] and in the test on Shigella dysenteriae [5] was “inactive” each time. The MIC result in the test with Micrococcus luteus [6], in the test with Escherichia coli [17], with Bacillus pumilus [7], in the test with Pseudomonas aeruginosa [8], with Vibrio cholerae [9] and in the test on Klebsiella pneumoniae [10] was “inactive” in each case.

Consider `OC(Cn1cncn1)(Cn1cncn1)c1ccc(F)cc1F` [FLUCONAZOLE], for which the MIC in the test on Aspergillus niger [13] is 10 µg/mL (≈ 32.7 µM); in the test on Candida albicans [14] it was 4 µg/mL (≈ 13.1 µM); in the test with Candida tropicalis [15], 8 µg/mL (≈ 26.1 µM); with Cryptococcus neoformans [16], 8 µg/mL (≈ 26.1 µM). In addition, the “diameter of the inhibition zone (DIZ)” value with Aspergillus niger [23] was determined as 8.6 mm; in the test with Candida albicans [21] it was 10.2 mm; in the test on Candida tropicalis [24], 8.5 mm; in the test on Cryptococcus neoformans [22], 8.5 mm.

Turning to `Clc1ccc(OCc2ccc(COc3ccc(Cl)c4cccnc34)cc2)c2ncccc12`, the MIC entry with Aspergillus niger [13], in the test with Candida albicans [14], in the test on Candida tropicalis [15], in the test with Cryptococcus neoformans [16], in the test on Staphylococcus aureus [4] and in the test with Shigella dysenteriae [5] was “inactive” each time. Moreover, the MIC result in the test with Micrococcus luteus [6], in the test on Escherichia coli [17], in the test on Bacillus pumilus [7], in the test on Pseudomonas aeruginosa [8], with Vibrio cholerae [9] and in the test on Klebsiella pneumoniae [10] was “inactive” each time.
